Measurements: ChEMBL document CHEMBL1201862, “PubChem BioAssay data set” (2004)
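Compound exposure: 48 hours, 5 concentrations, 96-well plates. Here, GI50 denotes the concentration required for 50% inhibition of growth.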 Active and inactive are the calls of the source. Cut-off read from the data, not from the text of the source: active = GI50 up to about 1.1 µM and inactive = higher.

Columns and labels:
Assay in all cases: inhibition of tumour cell growth, NCI panel, 48 h
IGROV-1 = test system: IGROV-1
NCI-H226 = test system: NCI-H226
MCF7 = test system: MCF7
HCC 2998 = test system: HCC 2998
SW-620 = test system: SW-620
M14 = test system: M14
BT-549 = test system: BT-549
K562 = test system: K562
786-0 = test system: 786-0
EKVX = test system: EKVX
SF-539 = test system: SF-539
SK-MEL-2 = test system: SK-MEL-2
RXF 393 = test system: RXF 393
OVCAR-5 = test system: OVCAR-5
Hs-578T = test system: Hs-578T
UACC-257 = test system: UACC-257
SNB-75 = test system: SNB-75
U-251 = test system: U-251
HL-60 = test system: HL-60

Measured: GI50

COC(=O)CNC(=O)CNC(=O)CSc1nnc(COc2ccc(Cl)cc2)n1-c1ccccc1
inactive: IGROV-1 17.9 µM | NCI-H226 > 100 µM | MCF7 > 100 µM | HCC 2998 42 µM | SW-620 68.1 µM | M14 37.4 µM | BT-549 24.4 µM | K562 30.1 µM | 786-0 > 100 µM | EKVX > 100 µM | SF-539 > 100 µM | SK-MEL-2 19.4 µM | RXF 393 15.4 µM | OVCAR-5 > 100 µM | Hs-578T 23.2 µM | UACC-257 19.1 µM | SNB-75 25.4 µM | U-251 49.9 µM

COc1c(CC=C(C)C)c(O)c(C(CC(C)C)c2c(O)c3c(c(C(C)=O)c2O)OC(C(C)(C)O)C3)c(O)c1C(C)=O (stereo unspecified)
inactive: IGROV-1 5.07 µM | MCF7 3.61 µM | HCC 2998 3.63 µM | SW-620 4.62 µM | HL-60 3.52 µM | M14 6.05 µM | BT-549 3 µM | K562 2.6 µM | 786-0 5.65 µM | EKVX 3.76 µM | SF-539 4.24 µM | SK-MEL-2 4.15 µM | RXF 393 3.67 µM | OVCAR-5 6.93 µM | Hs-578T 3.94 µM | UACC-257 4.18 µM | SNB-75 4.92 µM

Cc1cn(C2CC(O)C(CO[Si](C)(C)C(C)(C)C)OC2OC(C)C)c(=O)[nH]c1=O (stereo unspecified)
inactive: IGROV-1 29.8 µM | NCI-H226 41.9 µM | MCF7 22.4 µM | HCC 2998 24.5 µM | SW-620 49.4 µM | M14 34.9 µM | BT-549 44.9 µM | K562 49.3 µM | 786-0 16.6 µM | EKVX 42.5 µM | SF-539 21.9 µM | SK-MEL-2 36 µM | RXF 393 34 µM | OVCAR-5 > 100 µM | Hs-578T 67.3 µM | UACC-257 34.6 µM | SNB-75 > 100 µM | U-251 39.3 µM

Cc1cc(S(=O)(=O)NC(=C(C#N)C#N)[n+]2ccc(N(C)C)cc2)c([S-])cc1Cl
inactive: IGROV-1 > 100 µM | NCI-H226 > 100 µM | MCF7 > 100 µM | HCC 2998 > 100 µM | HL-60 > 100 µM | M14 > 100 µM | BT-549 > 100 µM | K562 > 100 µM | 786-0 > 100 µM | EKVX > 100 µM | SF-539 > 100 µM | SK-MEL-2 > 100 µM | RXF 393 > 100 µM | OVCAR-5 > 100 µM | Hs-578T > 100 µM | UACC-257 > 100 µM | U-251 > 100 µM

Cc1nc2c(cc1C(=O)N/N=C/c1ccc([N+](=O)[O-])cc1)c(=O)n(C)c(=O)n2C
inactive: IGROV-1 42.4 µM | NCI-H226 80.2 µM | MCF7 > 100 µM | HCC 2998 > 100 µM | SW-620 > 100 µM | HL-60 > 100 µM | M14 > 100 µM | BT-549 30.5 µM | K562 > 100 µM | 786-0 26.5 µM | EKVX 91.2 µM | SK-MEL-2 31.8 µM | RXF 393 18.6 µM | OVCAR-5 > 100 µM | Hs-578T 31.1 µM | UACC-257 > 100 µM | SNB-75 > 100 µM | U-251 19.2 µM

CC(C)C(C/C=C1/CC(CO)(COC(=O)C2CCCCC2)OC1=O)C(C)C (stereo unspecified)
inactive: IGROV-1 19.1 µM | NCI-H226 21.4 µM | MCF7 18.7 µM | HCC 2998 26.1 µM | SW-620 22.3 µM | M14 17.3 µM | BT-549 25.2 µM | K562 6.79 µM | 786-0 12.4 µM | EKVX 20 µM | SF-539 14.2 µM | SK-MEL-2 > 100 µM | RXF 393 21.5 µM | OVCAR-5 18.7 µM | Hs-578T 16.7 µM | UACC-257 26.9 µM | SNB-75 13.8 µM | U-251 18.3 µM
